According to publication PMC6902473 (Clinical Epigenetics, 2019):
Several values for one entry are separate records, joined by “and”; a condition that tells them apart may be missing. Identical values can stand only once. Like-named read-outs stand apart in the source and are kept apart here.

Columns and labels:
[1] = human, in vivo
Experimental: (§1) The study design was a single-arm, multi-center phase I/II clinical trial with two phases: Phase I was an intra-patient dose (de)escalation period until an individual maximum tolerable dose (MTD) was reached. […] A DLT was defined as grade 3 or 4 toxicity according to a selection of Common Toxicity Criteria for Adverse Events (CTCAE) (V4.0) and judged by the investigator as definitely, probably, or possibly related to the study drug. The starting dose was 180 mg/m^2/day and the minimum dose was 30 mg/m^2/day. A dosing nomogram was used to minimize interpatient dosing variability.
(§2) De-escalation was done in steps of 50 mg/m^2/day until a minimal dose of 30 mg/m^2/day was reached. […] Upon reaching her or his individual MTD, a patient seamlessly entered phase II of the protocol.
(§3) During phase II, disease assessments were performed every 3 months, starting 3 months after reaching individual MTD. If treatment was discontinued for any reason during phase II, treatment was prolonged thereafter to provide a minimal treatment window of 3 months before measuring response. Patients without progressive disease continued the therapy at their individual MTD until disease progression (but no longer than 9 months). In case of clinical benefit, treatment could be continued on an individual basis at the discretion of the investigator. Toxicities were graded according CTCAE V4.0.
(§4) The primary end point was to determine a safe dose recommendation (SDR), defined as the highest dose with a DLT in no more than 1/50 patients.
(§5) The DLT associated with the starting dose was to be continuously monitored using a Bayesian criterion with a non-informative prior and a binomial-beta model for the DLT rate r. […] This decision process was repeated, i.e., it was applied to the lowered starting dose in an analogous way.
(§6) All adverse events were summarized, using MedDRA preferred terms.

[2] = daily and continuous dosing; cited from earlier work
[3] = tested on: relapsed or therapy-refractory solid tumors (including brain tumors), lymphoma, or leukemia; assay: Phase II tumor response and survival at individual MTD (RECIST version 1.1)
Experimental: as §3, §4
Pretreatment evaluations included medical history, physical examination, ECG, ß-hCG in urine pregnancy test (if applicable), and complete blood count including differential, serum electrolytes liver, and renal function tests. Tumor markers were determined if appropriate. During phase I and the first 3 months of phase II (until the first response evaluation), history, physical examination, and laboratory studies were obtained weekly. If patients continued treatment beyond the first response evaluation in phase II (i.e., not showing PD), evaluations were performed every 2 weeks. After end of treatment, patients were followed-up for 3 months according the same scheme. In addition, an ECG was performed during phase I on day 8, 15, and at the time of reaching the individual MTD. Disease evaluations were performed at baseline, after 3 months of treatment at individual MTD, and every 3 months thereafter, using MRI (solid tumors, brain tumors, lymphomas), MIBG scan (neuroblastoma), or bone marrow evaluation (leukemia). Responses were reported using RECIST version 1.1 (solid tumors, brain tumors, lymphomas) [42–44] or the International Neuroblastoma Response Criteria (INRC) (neuroblastoma) [45], by central review. Bone marrow aspirates were evaluated in a central lab together with peripheral blood differential blood counts.
Standard methods for survival analysis (e.g., Kaplan-Meier estimates of the survival curves, Greenwood’s formula for estimating the standard error of event rates) were used for the analysis of time-to-event endpoints. […] Efficacy analysis included all patients who had completed the escalation/de-escalation scheme and started with the individual therapy at the MTD.
The AUCs were calculated by mixed log-linear model. Following exploratory aims to predict progression free survival (PFS) and overall survival (OS), an optimal cutpoint in the continuous PK parameter distributions of Cmax and AUC/D was determined by the minimum p value approach based on the log-rank test [51]. Graphical and statistical analysis was performed with Graphpad Prism 7.0 (Graphpad Software Inc., La Jolla, CA, USA), Kinetica 5.0 (Thermo Fisher Scientific, Waltham, MA, USA), and the R software/environment version 3.5.1 (R Foundation for Statistical Computing, Vienna, Austria).

[4] = Phase I/II intra-patient dose escalation trial: safety (DLT, individual MTD, SDR, adverse events CTCAE v4.0)
Experimental: as §1, §2, §3, §4, §5, §6

[5] = single patient: High grade glioma, highest methylation score for glioblastoma IDH wt, (NC) not censored
[6] = single patient: High grade glioma, methylation profile pilocytic astrocytoma, BRAF (p.V600E), (C) censored
[7] = single patient: Medulloblastoma, (C) censored
[8] = single patient: SETTLE tumor, (C) censored
[9] = maximum Grade 3 CTCAE v4.0, n = 50

Structure (SMILES): O=C(CCCCCCC(=O)Nc1ccccc1)NO [vorinostat]
- Patients with all causalities AE: AE [1]: 49 (98) No. (%)
- Patients with all causalities AE: AE leading to dose reduction or temporary treatment discontinuation [1]: 38 (76) No. (%)
- Patients with all causalities AE: AE leading to treatment discontinuation [1]: 9 (18) No. (%)
- Patients with all causalities AE: SAEs [1]: 19 (38) No. (%)
- Patients with all causalities AE: Severe AEs (CTCAE grade 3/4) [1]: 48 (96) No. (%)
- Patients with treatment related AE: Alanine aminotransferase increased [1]: 2 (4.0) Patients (%)
- Patients with treatment related AE: Alopecia [1]: 9 (18.0) Patients (%)
- Patients with treatment related AE: Anemia [1]: 8 (16.0) Patients (%)
- Patients with treatment related AE: Blood creatinine increased [1]: 5 (10.0) Patients (%)
- Patients with treatment related AE: Blood lactate dehydrogenase increased [1]: 4 (8.0) Patients (%)
- Patients with treatment related AE: Constipation [1]: 4 (8.0) Patients (%)
- Patients with treatment related AE: Cough [1]: 3 (6.0) Patients (%)
- Patients with treatment related AE: Decreased appetite [1]: 5 (10.0) Patients (%)
- Patients with treatment related AE: Diarrhea [1]: 11 (22.0) Patients (%)
- Patients with treatment related AE: Dry skin [1]: 4 (8.0) Patients (%)
- Patients with treatment related AE: Fatigue [1]: 9 (18.0) Patients (%)
- Patients with treatment related AE: Headache [1]: 5 (10.0) Patients (%)
- Patients with treatment related AE: Nausea [1]: 11 (22.0) Patients (%)
- Patients with treatment related AE: Platelet count decreased [1]: 6 (12.0) Patients (%)
- Patients with treatment related AE: Pyrexia [1]: 3 (6.0) Patients (%)
- Patients with treatment related AE: Vomiting [1]: 8 (16.0) Patients (%)
- Patients with treatment related AE: Weight decreased [1]: 5 (10.0) Patients (%)
- Patients with treatment related AE: White blood cell decreased [1]: 1 (2.0) Patients (%)
- Total of patients with treatment related AE: Alanine aminotransferase increased [1]: 4 (8.0, 2.2 - 19.2) Patients (%, 95% CIs)
- Total of patients with treatment related AE: Alopecia [1]: 9 (18.0, 8.6 - 31.4) Patients (%, 95% CIs)
- Total of patients with treatment related AE: Blood creatinine increased [1]: 5 (10.0, 3.3 - 21.8) Patients (%, 95% CIs)
- Total of patients with treatment related AE: Blood lactate dehydrogenase increased [1]: 4 (8.0, 2.2 - 19.2) Patients (%, 95% CIs)
- Total of patients with treatment related AE: Constipation [1]: 4 (8.0, 2.2 - 19.2) Patients (%, 95% CIs)
- Total of patients with treatment related AE: Decreased appetite [1]: 7 (14.0, 5.8 - 26.7) Patients (%, 95% CIs)
- Total of patients with treatment related AE: Headache [1]: 6 (12.0, 4.5 - 24.3) Patients (%, 95% CIs)
- Total of patients with treatment related AE: Weight decreased [1]: 8 (16.0, 7.2 - 29.1) Patients (%, 95% CIs)
- Total of patients with treatment related AE: White blood cell decreased [1]: 9 (18.0, 8.6 - 31.4 ) Patients (%, 95% CIs)
- Total sum of DLTs: Abdominal pain [1]: 1
- Total sum of DLTs: Abdominal pain upper [1]: 2
- Total sum of DLTs: Aggression [1]: 1
- Total sum of DLTs: Alanine aminotransferase increased [1]: 3
- Total sum of DLTs: Anemia [1]: 2
- Total sum of DLTs: Apathy [1]: 1
- Total sum of DLTs: Decreased appetite [1]: 3
- Total sum of DLTs: Fatigue [1]: 7
- Total sum of DLTs: Febrile infection [1]: 2
- Total sum of DLTs: Hypermagnesemia [1]: 3
- Total sum of DLTs: Hypokalemia [1]: 1
- Total sum of DLTs: Loss of personal independence in daily activities [1]: 1
- Total sum of DLTs: Vomiting [1]: 2
- Total sum of DLTs: Weight decreased [1]: 2
- Total sum of DLTs: White blood cell decreased [1]: 11
- pediatric recommended phase 2 dose [2]: 230 mg/m^2/day
- Best ORR (CR + PR + SD) ([3]; Efficacy population (n = 27)): 6 (22.2, 8.6–42.3) No. (%, 95% CI)
- Best RR (CR + PR) ([3]; Efficacy population (n = 27)): 4 (14.8, 4.2–33.7) No. (%, 95% CI)
- Median OS (95% CI) ([3]; Efficacy population (n = 27)): 22.4 months and 22.4 (6.3 - --) months
- Median PFS (95% CI) ([3]; Efficacy population (n = 27)): 5.3 (4.6–5.9) months
- Median response duration ([3]; Efficacy population (n = 27)): 19.1 months
- best overall response rate (combining PR and SD, no CR observed) ([3]; Efficacy population (n = 27)): 22%
- Best ORR (CR + PR + SD) ([3]; Safety population (n = 50)): 6 (12.0, 4.5–24.3) No. (%, 95% CI)
- Best RR (CR + PR) ([3]; Safety population (n = 50)): 4 (8.0, 2.2–19.2) No. (%, 95% CI)
- Median OS (95% CI) ([3]; Safety population (n = 50)): 6.1 (4.0–10.4) months
- Median PFS (95% CI) ([3]; Safety population (n = 50)): 4.6 (3.7–5.3) months
- Median response duration ([3]; Safety population (n = 50)): 19.1 months
- patients with partial response (PR) ([3]; first response evaluation, after 3-month treatment at individual MTD, efficacy population): 3/27
- OS [3, 5]: 750 (NC) Days
- PFS [3, 5]: 441 (NC) Days
- OS [3, 6]: 1352 (C) Days
- PFS [3, 6]: 385 (C) Days
- PFS ([3]; single patient: High grade glioma, no molecular data, last dose level 280 mg/m^2/d, (C) censored): 499 (C) Days
- OS ([3]; single patient: High grade glioma, no molecular data, last dose level 280 mg/m^2/d, (NC) not censored): 682 (NC) Days
- OS [3, 7]: 871 (C) Days
- PFS [3, 7]: 422 (C) Days
- OS [3, 8]: 1190 (C) Days
- PFS [3, 8]: 456 (C) Days
- median individual MTD ([4]; Safety population (n = 50)): 280 mg/m^2/day
- patients who reached the maximum individual MTD of 580 mg/m^2/day ([4]; Safety population (n = 50)): 4/50
- treatment-related deaths ([4]; Safety population (n = 50)): No treatment-related deaths
- safe dose recommendation (SDR) ([4]; highest dose with a DLT in no more than 1/50 patients, starting dose for individual dose escalation): 130 mg/m^2/day
- Patients with treatment related AE: Anemia [4, 9]: 2 (4.0) Patients (%)
- Patients with treatment related AE: Decreased appetite [4, 9]: 2 (4.0) Patients (%)
- Patients with treatment related AE: Diarrhea [4, 9]: 1 (2.0) Patients (%)
- Patients with treatment related AE: Fatigue [4, 9]: 7 (14.0) Patients (%)
- Patients with treatment related AE: Headache [4, 9]: 1 (2.0) Patients (%)
- Patients with treatment related AE: Hypermagnesemia [4, 9]: 3 (6.0) Patients (%)
- Patients with treatment related AE: Nausea [4, 9]: 4 (8.0) Patients (%)
- Patients with treatment related AE: Platelet count decreased [4, 9]: 15 Patients (%) and 15 (30.0) Patients (%)
- Patients with treatment related AE: Vomiting [4, 9]: 2 (4.0) Patients (%)
- Patients with treatment related AE: Weight decreased [4, 9]: 3 (6.0) Patients (%)
- Patients with treatment related AE: White blood cell decreased [4, 9]: 8 (16.0) Patients (%)
- Patients with treatment related AE: Platelet count decreased ([4]; maximum Grade 4 CTCAE v4.0, n = 50): 16 Patients (%) and 16 (32.0) Patients (%)
- maximum individual MTD ([4]; maximum dose of the escalation scheme): 580 mg/m^2/day
- MTD ([4]; single patient: High grade glioma, highest methylation score for glioblastoma IDH wt): 530 mg/m^2/d
- MTD ([4]; single patient: High grade glioma, methylation profile pilocytic astrocytoma, BRAF (p.V600E)): 280 mg/m^2/d
- MTD ([4]; single patient: High grade glioma, no molecular data, last dose level 280 mg/m^2/d): 530 mg/m^2/d
- MTD ([4]; single patient: Medulloblastoma): 580 mg/m^2/d
- MTD ([4]; single patient: SETTLE tumor): 580 mg/m^2/d
